In ChEMBL document CHEMBL3244275, “Synthesis and antitumor activity of 1,2-dihydro-1-(2-deosy-beta-D-erythro-pentofuranosyl)-2-oxo-5-methylpyrazine 4-oxide, a structural analogue of thymidine” (J Med Chem, 1977):

Key:
L1210 [1] = assay: Growth inhibition of mouse L1210 cells at 9 x 10^-7 M after 40 hrs by trypan blue exclusion assay; format: functional; conditions: L1210, 40 h, read-out: GI
L1210 [2] = assay: Growth inhibition of mouse L1210 cells at inhibitor/deoxycytidine ratio 0.2 after 40 hrs by trypan blue exclusion assay; format: functional
Enterococcus faecium = assay: Antibacterial activity against Streptococcus faecium at 8 x 10^-5 M; format: functional; conditions: read-out: GI
L1210 [3] = assay: Growth inhibition of mouse L1210 cells at inhibitor/deoxyuridine ratio 2 after 40 hrs by trypan blue exclusion assay; format: functional
Mus musculus = assay: Toxicity in mouse L1210 cells allografted DBA/2 Ha mouse assessed as overt signs of toxicity at 100 to 400 mg/kg, ip qd for 6 days; format: organism-based; design: dose 100-400 mg/kg, route intraperitoneal; conditions: in vivo, 144 h
L1210 [4] = assay: Antitumor activity against mouse L1210 cells allografted in DBA/2 Ha mouse assessed as increase in life span of host at 200 mg/kg, ip qd for 6 days relative to control; format: functional; conditions: route intraperitoneal
L1210 [5] = assay: Growth inhibition of mouse L1210 cells at inhibitor/cytidine ratio 0.02 after 40 hrs by trypan blue exclusion assay; format: functional
Escherichia coli [6] = assay: Antibacterial activity against Escherichia coli at 1 x 10^-3 M; format: functional; conditions: read-out: GI
L1210 [7] = assay: Antitumor activity against mouse L1210 cells allografted in DBA/2 Ha mouse assessed as increase in life span of host at 400 mg/kg, ip qd for 6 days relative to control; format: functional; conditions: route intraperitoneal
L1210 [8] = assay: Growth inhibition of mouse L1210 cells at inhibitor/uridine ratio 0.04 after 40 hrs by trypan blue exclusion assay; format: functional
L1210 [9] = assay: Growth inhibition of mouse L1210 cells at inhibitor/thymidine ratio 50 after 40 hrs by trypan blue exclusion assay; format: functional
L1210 [10] = assay: Antitumor activity against mouse L1210 cells allografted in DBA/2 Ha mouse assessed as increase in life span of host at 100 mg/kg, ip qd for 6 days relative to control; format: functional; conditions: route intraperitoneal
Escherichia coli [11] = assay: Antibacterial activity against Escherichia coli K-12 at 1 x 10^-3 M; format: functional; conditions: read-out: GI

Compound: Cc1cn([C@H]2C[C@H](O)[C@@H](CO)O2)c(=O)c[n+]1[O-]
- inhibition of growth at 0.9 µM (L1210 [1]): 50%
- growth inhibition (GI) (L1210 [2]): 50%
- inhibition of growth at 80 µM (Enterococcus faecium): 50%
- growth inhibition (GI) (L1210 [3]): 50%
- Activity (Mus musculus): Non-toxic
- Activity (L1210 [4]): 30%
- growth inhibition (GI) (L1210 [5]): 50%
- inhibition of growth at 1000 µM (Escherichia coli [6]): 20%
- Activity (L1210 [7]): 55%
- growth inhibition (GI) (L1210 [8]): 50%
- growth inhibition (GI) (L1210 [9]): 50%
- Activity (L1210 [10]): 18%
- inhibition of growth at 1000 µM (Escherichia coli [11]): 30%
